Like-named read-outs stand apart in the source and are kept apart here.
How the values were obtained:
[1] = test system: S. aureus MSSA-7 producing penicillinase PC-1; experiment: broth microdilution MIC, S. aureus PC-1; format: cell-based; conditions: Fixed Pip (piperacillin) 4 μg/mL
Excerpt: (§1) To determine the ability of test compounds to potentiate the inhibition of the growth of bacterial strains that produce beta-lactamase enzymes, classic cell based broth microdilution MIC assays were employed. Six bacteria strains producing beta-lactamase enzymes were used: E. coli expressing the Class A Extended Spectrum Beta-Lactamase (ESBL) CTX-M-15, E. cloacae expressing the Class C P99, K. pneumoniae expressing the Class A carbapenemase KPC-3, P. aeruginosa expressing the Class B carbapenemase VIM-2, K pneumoniae expressing the class A carbapenemase KPC-2 and the class B carbapenemase VIM-4, and S. aureus producing the Class A penicillinase PC-1. The assay was conducted in Cation Adjusted Mueller Hinton Broth (CAMHB, BD #212322, BD Diagnostic Systems, Sparks, Md.). Bacteria strains were grown for 3-5 hours in CAMBH broth. Test compounds were added to a microtiter plate in 2-fold serial dilutions in CAMHB in a final concentration range of 32 μg/mL to 0.25 μg/ml. An overlay of CAMHB containing a Beta-lactam was added to the compounds at a final static concentration of 4 μg/ml. […] In addition to the titration of test compounds the MICs of a panel of control beta-lactams is also tested to ensure the strains are behaving consistently from test to test. Once the test compound and antibiotics are added the plates can be inoculated according to CLSI broth microdilution method. After inoculation the plates are incubated for 16-20 hours at 37° C., then the Minimal Inhibitory Concentration (MIC) of the test compound is determined visually.
(§2) Using the methodology described above, examples of the current invention were evaluated for their ability to inhibit the growth of β-lactamase-producing bacteria in the presence of a β-lactam antibiotic.
(§3) Representative results are shown in Table 4 where A represents an MIC of the fixed β-lactam antibiotic in the presence of >32 µg/mL of a β-lactamase inhibitor of exemplary compounds, B represents the MIC in the presence of between 8 and 32 µg/mL of a β-lactamase inhibitor of exemplary compounds, and C represents the MIC in the presence of ≤4 µg/mL of a β-lactamase inhibitor of exemplary compounds. NT=Not Tested.

[2] = test system: P. aeruginosa Ps296 expressing VIM-2; experiment: broth microdilution MIC, P. aeruginosa VIM-2; format: cell-based; conditions: Fixed Mero (meropenem) 4 μg/mL
Excerpt: as §1, §2, §3

[3] = test system: E. coli ESBL4 expressing CTX-M-15; experiment: broth microdilution MIC, E. coli CTX-M-15; format: cell-based; conditions: Fixed CAZ (ceftazidime) 4 μg/mL
Method in brief: (§4)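 Following CLSI broth microdilution, plates were read by eye for MIC after 16–20 h incubation at 37 °C. Each well held a fixed 4 μg/mL β-lactam overlay plus test compound serially halved from 32 to 0.25 μg/mL in CAMHB. Inocula came from 3–5 h broth cultures.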

[4] = target: T1, VIM-2 metallo β-lactamase (Pseudomonas aeruginosa, UniProt Q9K2N0); experiment: β-lactamase enzyme inhibition, VIM-2; format: biochemical; conditions: Nitrocefin 100 μM, 486 nm; 15 min at 37° C. preincubation; read-out: IC50 VIM-2 (Class B)
T1 construct: made in house; host or cells: E. coli BL21(DE3)
Method in brief: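 Inhibitor and enzyme sat together 15 min at 37° C before 100 μM nitrocefin (final) was added and 486 nm absorbance read for 10 min. IC50 is the concentration halving initial hydrolysis rate relative to uninhibited wells. Protein came from Q sepharose anion exchange at pH 7.5, repeated to >90% purity.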

[5] = target: T2, SHV-5 β-lactamase (Klebsiella pneumoniae, UniProt P0A3M1); experiment: β-lactamase enzyme inhibition, SHV-5; format: biochemical
T2 construct: made in house; host or cells: E. coli BL21(DE3)
T2 sequence (P0A3M1 22-286): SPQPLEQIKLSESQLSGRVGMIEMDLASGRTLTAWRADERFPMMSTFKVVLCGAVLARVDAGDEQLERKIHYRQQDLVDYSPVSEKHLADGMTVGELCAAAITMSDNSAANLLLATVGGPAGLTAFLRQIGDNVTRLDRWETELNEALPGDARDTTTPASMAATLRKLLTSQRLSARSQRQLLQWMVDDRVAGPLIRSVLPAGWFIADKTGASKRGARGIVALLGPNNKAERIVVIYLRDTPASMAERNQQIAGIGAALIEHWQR
Method in brief: (§5)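 IC50 was the inhibitor concentration halving the initial hydrolysis rate versus no-inhibitor wells, following a 15 min 37° C. enzyme–inhibitor preincubation. Substrates: imipenem read at 300 nm for KPC-2, cefotaxime at 260 nm for SHV-5, and nitrocefin (100 μM final) at 486 nm for OXA-1 and p99 AmpC. Enzymes were recombinant untagged proteins from E. coli BL21(DE3).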

[6] = target: T3, KPC-2 β-lactamase (Klebsiella pneumoniae, UniProt Q9F663); experiment: β-lactamase enzyme inhibition, KPC-2; format: biochemical
T3 construct: made in house; host or cells: E. coli BL21(DE3)
T3 sequence (Q9F663 25-293, looked up): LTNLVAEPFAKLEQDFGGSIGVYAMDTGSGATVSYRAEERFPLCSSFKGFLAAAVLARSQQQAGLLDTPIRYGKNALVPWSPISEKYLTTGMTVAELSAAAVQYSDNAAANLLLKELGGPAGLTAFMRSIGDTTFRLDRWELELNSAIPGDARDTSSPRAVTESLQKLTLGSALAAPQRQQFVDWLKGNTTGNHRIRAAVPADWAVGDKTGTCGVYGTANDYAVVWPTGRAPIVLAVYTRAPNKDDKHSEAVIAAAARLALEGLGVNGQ
Method in brief: as §5

[7] = test system: E. cloacae 144200 expressing Class C P99 AmpC; experiment: broth microdilution MIC, E. cloacae P99; format: cell-based; conditions: Fixed CAZ (ceftazidime) 4 μg/mL
Method in brief: as §4

[8] = test system: K. pneumoniae A-1797 expressing KPC-2 and VIM-4; experiment: broth microdilution MIC, K. pneumoniae KPC-2 and VIM-4; format: cell-based; conditions: Fixed Mero (meropenem) 4 μg/mL
Method in brief: as §4

[9] = target: T4, p99 AmpC β-lactamase (Enterobacter cloacae, UniProt P05364); experiment: β-lactamase enzyme inhibition, p99 AmpC; format: biochemical
T4 construct: made in house; host or cells: E. coli BL21(DE3)
T4 sequence (P05364 21-381): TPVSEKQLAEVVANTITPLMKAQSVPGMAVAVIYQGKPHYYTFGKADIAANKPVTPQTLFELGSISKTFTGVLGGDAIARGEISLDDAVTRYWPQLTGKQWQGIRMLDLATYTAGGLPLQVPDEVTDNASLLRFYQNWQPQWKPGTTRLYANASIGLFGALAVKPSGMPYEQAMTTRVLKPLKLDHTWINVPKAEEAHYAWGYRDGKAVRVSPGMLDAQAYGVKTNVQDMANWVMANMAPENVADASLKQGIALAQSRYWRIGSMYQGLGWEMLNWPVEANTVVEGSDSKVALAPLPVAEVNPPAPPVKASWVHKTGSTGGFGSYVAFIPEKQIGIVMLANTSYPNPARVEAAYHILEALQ
Method in brief: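 Inhibitor and enzyme were incubated 15 min at 37°C first. The enzyme was recombinant p99 AmpC, untagged, from E. coli BL21(DE3), purified by ion-exchange and size-exclusion chromatography.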

[10] = target: T5, OXA-1 β-lactamase (Escherichia coli, UniProt P13661); experiment: β-lactamase enzyme inhibition, OXA-1; format: biochemical; conditions: Nitrocefin 100 μM, 486 nm; 15 min at 37° C. preincubation; read-out: IC50 OXA-1 (Class D)
T5 construct: made in house; host or cells: E. coli BL21(DE3)
T5 sequence (P13661 26-276): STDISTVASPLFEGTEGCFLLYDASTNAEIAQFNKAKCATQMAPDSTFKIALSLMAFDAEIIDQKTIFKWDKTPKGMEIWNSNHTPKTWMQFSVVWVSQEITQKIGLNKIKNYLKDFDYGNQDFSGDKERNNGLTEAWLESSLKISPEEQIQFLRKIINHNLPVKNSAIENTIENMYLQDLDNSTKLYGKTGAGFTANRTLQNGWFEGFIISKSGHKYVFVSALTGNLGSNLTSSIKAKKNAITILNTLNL
Method in brief: as §5

[11] = test system: K. pneumoniae 156319 expressing KPC-3; experiment: broth microdilution MIC, K. pneumoniae KPC-3; format: cell-based; conditions: Fixed Mero (meropenem) 4 μg/mL
Method in brief: as §4

[12] = imipenem substrate, 300 nm, 15 min at 37° C. preincubation, read-out: IC50 KPC-2 (Class A)

| SMILES | MIC of exemplary compounds in presence of fixed β-lactams, S. aureus MSSA-7 PC-1 [1] | MIC of exemplary compounds in presence of fixed β-lactams, P. aerug. Ps296 VIM-2 [2] | MIC of exemplary compounds in presence of fixed β-lactams, E. coli ESBL4 CTX-M-15 [3] | IC50 [4] [nM] | IC50 [5] [nM] | IC50 [6, 12] [nM] | MIC of exemplary compounds in presence of fixed β-lactams, E. cl. 144200 p99 AmpC [7] | MIC of exemplary compounds in presence of fixed β-lactams, K.P. A-1797 KPC-2 VIM-4 [8] | IC50 [9] [nM] | IC50 [10] [nM] | MIC of exemplary compounds in presence of fixed β-lactams, K.P. 156319 KPC-3 [11] | IC50 [6] [nM] |
| --- | --- | --- | --- | --- | --- | --- | --- | --- | --- | --- | --- | --- |
| CC(O)(O)C(=O)N[C@H]1Cc2cccc(C(=O)O)c2OB1O [Example 3, (R)-3-(2,2-Dihydroxy-propionylamino)-2-hydroxy-3,4-dihydro-2H-benzo[e][1,2]oxaborinine-8-carboxylic acid] | C (C represents the MIC in the presence of ≤4 g/mL of a β-lactamase inhibitor) | C (C represents the MIC in the presence of ≤4 g/mL of a β-lactamase inhibitor) | C (C represents the MIC in the presence of ≤4 g/mL of a β-lactamase inhibitor) | 1000 to 10000 | 100 to 1000 | 100 to 1000 | C (C represents the MIC in the presence of ≤4 g/mL of a β-lactamase inhibitor) | A (A represents an MIC of the fixed β-lactam antibiotic in the presence of >32 g/mL of a β-lactamase inhibitor) | < 100 | < 100 | C (C represents the MIC in the presence of ≤4 g/mL of a β-lactamase inhibitor) |  |
| O=C(CC(F)(F)F)N[C@H]1Cc2cccc(C(=O)O)c2OB1O [Example 4, (R)-2-Hydroxy-3-(3,3,3-trifluoro-propionylamino)-3,4-dihydro-2H-benzo[e][1,2]oxaborinine-8-carboxylic acid] | C (C represents the MIC in the presence of ≤4 g/mL of a β-lactamase inhibitor) | C (C represents the MIC in the presence of ≤4 g/mL of a β-lactamase inhibitor) | C (C represents the MIC in the presence of ≤4 g/mL of a β-lactamase inhibitor) | 1000 to 10000 | < 100 | 100 to 1000 | C (C represents the MIC in the presence of ≤4 g/mL of a β-lactamase inhibitor) | B (B represents the MIC in the presence of between 8 and 32 g/mL of a β-lactamase inhibitor) | < 100 | < 100 | C (C represents the MIC in the presence of ≤4 g/mL of a β-lactamase inhibitor) |  |
| O=C(O)c1cccc2c1OB(O)[C@@H](NC(=O)C(Cl)CC(F)F)C2 (stereo partly drawn) [Example 5, (R)-3-(2-Chloro-4,4-difluoro-butyrylamino)-2-hydroxy-3,4-dihydro-2H-benzo[e][1,2]oxaborinine-8-carboxylic acid] | C (C represents the MIC in the presence of ≤4 g/mL of a β-lactamase inhibitor) | A (A represents an MIC of the fixed β-lactam antibiotic in the presence of >32 g/mL of a β-lactamase inhibitor) | C (C represents the MIC in the presence of ≤4 g/mL of a β-lactamase inhibitor) | 1000 to 10000 | < 100 | < 100 | C (C represents the MIC in the presence of ≤4 g/mL of a β-lactamase inhibitor) | B (B represents the MIC in the presence of between 8 and 32 g/mL of a β-lactamase inhibitor) | < 100 | < 100 | C (C represents the MIC in the presence of ≤4 g/mL of a β-lactamase inhibitor) |  |
| CC(C)CC(=O)N[C@H]1Cc2cccc(C(=O)O)c2OB1O [Example 6, (R)-2-Hydroxy-3-(3-methyl-butyrylamino)-3,4-dihydro-2H-benzo[e][1,2]oxaborinine-8-carboxylic acid] | C (C represents the MIC in the presence of ≤4 g/mL of a β-lactamase inhibitor) | B (B represents the MIC in the presence of between 8 and 32 g/mL of a β-lactamase inhibitor) | C (C represents the MIC in the presence of ≤4 g/mL of a β-lactamase inhibitor) | 1000 to 10000 | < 100 | < 100 | C (C represents the MIC in the presence of ≤4 g/mL of a β-lactamase inhibitor) | A (A represents an MIC of the fixed β-lactam antibiotic in the presence of >32 g/mL of a β-lactamase inhibitor) | < 100 | < 100 | C (C represents the MIC in the presence of ≤4 g/mL of a β-lactamase inhibitor) |  |
| N#CCCC(=O)N[C@H]1Cc2cccc(C(=O)O)c2OB1O [Example 8, (R)-3-(3-Cyano-propionylamino)-2-hydroxy-3,4-dihydro-2H-benzo[e][1,2]oxaborinine-8-carboxylic acid] | C (C represents the MIC in the presence of ≤4 g/mL of a β-lactamase inhibitor) | C (C represents the MIC in the presence of ≤4 g/mL of a β-lactamase inhibitor) | C (C represents the MIC in the presence of ≤4 g/mL of a β-lactamase inhibitor) | 100 to 1000 | < 100 |  | C (C represents the MIC in the presence of ≤4 g/mL of a β-lactamase inhibitor) | C (C represents the MIC in the presence of ≤4 g/mL of a β-lactamase inhibitor) | < 100 | < 100 | C (C represents the MIC in the presence of ≤4 g/mL of a β-lactamase inhibitor) | < 100 |
| CC(=O)CCC(=O)N[C@H]1Cc2cccc(C(=O)O)c2OB1O [Example 10, (R)-2-Hydroxy-3-(4-oxo-pentanoylamino)-3,4-dihydro-2H-benzo[e][1,2]oxaborinine-8-carboxylic acid] | C (C represents the MIC in the presence of ≤4 g/mL of a β-lactamase inhibitor) | C (C represents the MIC in the presence of ≤4 g/mL of a β-lactamase inhibitor) | C (C represents the MIC in the presence of ≤4 g/mL of a β-lactamase inhibitor) | 100 to 1000 | < 100 |  | C (C represents the MIC in the presence of ≤4 g/mL of a β-lactamase inhibitor) | C (C represents the MIC in the presence of ≤4 g/mL of a β-lactamase inhibitor) | < 100 | < 100 | C (C represents the MIC in the presence of ≤4 g/mL of a β-lactamase inhibitor) | 100 to 1000 |

From US11008346B2, “Beta-lactamase inhibitors” (priority 2014, dated 2021)
